The text below walks through data of patent publication US20230219904A1 (SYNGENTA CROP PROTECTION AG, priority 2020, published 2023).

Format in all cases: in vivo
Details in all cases: applied at 125 g/ha, evaluated after 13 days

Test [1] deals with Abutilon theophrasti (ABUTH). The test is described as follows: Pre-emergence herbicidal glasshouse test (Table B1). In outline:
(§1)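 Potted plants, glasshouse 24/16° C, 14 h light, 65% RH; spray at 1 d (pre) or 8 d (post) post-sowing; 500 g/h default; acetone/water 50:50 + 0.5% Tween 20. Damage read at 13 d, scored 1–5 (5=80-100%, 1=0-19%).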

Test [2] deals with Ipomoea hederacea (IPOHE). The test is described as above. In outline:
as §1

For test [3], the system named is Amaranthus retoflexus (AMARE). Described as above. In outline:
as §1

Test [4] deals with Setaria faberi (SETFA). The test is described as above. Summed up: as §1
In test [5] the test system is Echinochloa crus-galh (ECHCG). The test is described as follows: Post-emergence herbicidal glasshouse test (Table B1). Summed up:
as §1

Test [6] concerns Abutilon theophrasti (ABUTH). Described as above. In outline: as §1
For test [7], the system named is Ipomoea hederacea (IPOHE). The description is as above. In outline: as §1
Test [8] has as its system Amaranthus retoflexus (AMARE). The test is described as above. In outline: as §1
Test [9] concerns Setaria faberi (SETFA). The description is as above. In outline: as §1
Test [10] deals with Echinochloa crus-galh (ECHCG). Briefly: Pre-emergence herbicidal glasshouse test (Table B1). Summed up: as §1

As for `COc1cccc(C(=O)Nc2c(OC(F)F)ccc(C(=O)Nc3nnnn3C)c2Cl)n1` [Compound 1.085], in test [1], the “PRE Application ABUTH, percentage damage on five-point scale” value (from here on “PRE Application ABUTH, percentage damage”) is 5 (5=80-100%). Further, the “PRE Application IPOHE, percentage damage on five-point scale” value (from here on “PRE Application IPOHE, percentage damage”) in test [2] is reported as 3 (3=40-59%). Further, the “PRE Application AMARE, percentage damage on five-point scale” value (from here on “PRE Application AMARE, percentage damage”) in [3] is listed as 4 (4=60-79%). In the test on Setaria faberi (SETFA) [4], the “PRE Application SETFA, percentage damage on five-point scale” value (from here on “PRE Application SETFA, percentage damage”) is given as 3 (3=40-59%). Also, in [5], the “POST Application ECHCG, percentage damage on five-point scale” value is 4 (4=60-79%). The “POST Application ABUTH, percentage damage on five-point scale” value in [6] is recorded as 4 (4=60-79%). The “POST Application IPOHE, percentage damage on five-point scale” value in test [7] was 4 (4=60-79%). For the same compound, the “POST Application AMARE, percentage damage on five-point scale” value in test [8] was 4 (4=60-79%). The “POST Application SETFA, percentage damage on five-point scale” value in the test with Setaria faberi (SETFA) [9] was 4 (4=60-79%).
On to `Cn1nnnc1NC(=O)c1ccc(OC(F)(F)F)c(NC(=O)C2(F)CC2)c1Cl` [Compound 1.054], for which the “PRE Application ECHCG, percentage damage on five-point scale” value in test [10] is 5 (5=80-100%). In test [1], the “PRE Application ABUTH, percentage damage” value is listed as 5 (5=80-100%). Moreover, the “PRE Application IPOHE, percentage damage” value in [2] was 4 (4=60-79%). Moreover, the “PRE Application AMARE, percentage damage” value in test [3] is listed as 5 (5=80-100%). Moreover, the “PRE Application SETFA, percentage damage” value in the test on Setaria faberi (SETFA) [4] is 5 (5=80-100%). In addition, in [6], the “POST Application ABUTH, percentage damage on five-point scale” value is reported as 5 (5=80-100%). Also, the “POST Application IPOHE, percentage damage on five-point scale” value in test [7] is on record as 5 (5=80-100%). Besides, in test [8], the “POST Application AMARE, percentage damage on five-point scale” value is 5 (5=80-100%). In addition, in the test with Setaria faberi (SETFA) [9], the “POST Application SETFA, percentage damage on five-point scale” value is on record as 5 (5=80-100%).
As to `Cn1nnnc1NC(=O)c1ccc(OC(F)F)c(NC(=O)c2ncc(F)cc2F)c1Cl` [Compound 1.089], the “PRE Application ABUTH, percentage damage” value in [1] is given as 2 (2=20-39%). Also, the “PRE Application IPOHE, percentage damage” value in [2] is on record as 3 (3=40-59%). Moreover, the “PRE Application AMARE, percentage damage” value in test [3] is recorded as 5 (5=80-100%). Moreover, the “PRE Application SETFA, percentage damage” value with Setaria faberi (SETFA) [4] was 3 (3=40-59%). Moreover, the “POST Application ECHCG, percentage damage on five-point scale” value in test [5] is reported as 2 (2=20-39%). For the same compound, the “POST Application ABUTH, percentage damage on five-point scale” value in test [6] is on record as 3 (3=40-59%). Further, in [7], the “POST Application IPOHE, percentage damage on five-point scale” value is 3 (3=40-59%). Moreover, the “POST Application AMARE, percentage damage on five-point scale” value in test [8] is on record as 4 (4=60-79%). Besides, the “POST Application SETFA, percentage damage on five-point scale” value with Setaria faberi (SETFA) [9] is listed as 4 (4=60-79%).
On to `Cn1nnnc1NC(=O)c1ccc(OC(F)F)c(NC(=O)c2cc(Cl)ccn2)c1Cl` [Compound 1.086], for which the “PRE Application ABUTH, percentage damage” value in [1] is 5 (5=80-100%). For the same compound, the “PRE Application IPOHE, percentage damage” value in test [2] is recorded as 4 (4=60-79%). Besides, the “PRE Application AMARE, percentage damage” value in test [3] is 5 (5=80-100%). Also, the “PRE Application SETFA, percentage damage” value with Setaria faberi (SETFA) [4] was 4 (4=60-79%). Besides, the “POST Application ECHCG, percentage damage on five-point scale” value in [5] is 4 (4=60-79%). Further, the “POST Application ABUTH, percentage damage on five-point scale” value in test [6] is listed as 4 (4=60-79%). For the same compound, in test [7], the “POST Application IPOHE, percentage damage on five-point scale” value is on record as 5 (5=80-100%). For the same compound, the “POST Application AMARE, percentage damage on five-point scale” value in test [8] was 5 (5=80-100%). Moreover, in the test on Setaria faberi (SETFA) [9], the “POST Application SETFA, percentage damage on five-point scale” value is listed as 4 (4=60-79%).
With `Cn1nnnc1NC(=O)c1ccc(OC(F)F)c(NC(=O)c2nc(Cl)ccc2Cl)c1Cl` [Compound 1.088], the “PRE Application ABUTH, percentage damage” value in test [1] is recorded as 4 (4=60-79%). In addition, the “PRE Application IPOHE, percentage damage” value in [2] is on record as 4 (4=60-79%). For the same compound, the “PRE Application AMARE, percentage damage” value in [3] is listed as 5 (5=80-100%). The “PRE Application SETFA, percentage damage” value with Setaria faberi (SETFA) [4] is reported as 5 (5=80-100%). For the same compound, the “POST Application ECHCG, percentage damage on five-point scale” value in test [5] is recorded as 3 (3=40-59%). For the same compound, the “POST Application ABUTH, percentage damage on five-point scale” value in test [6] is given as 4 (4=60-79%). Besides, in [7], the “POST Application IPOHE, percentage damage on five-point scale” value is given as 4 (4=60-79%). Moreover, in [8], the “POST Application AMARE, percentage damage on five-point scale” value is 4 (4=60-79%). For the same compound, the “POST Application SETFA, percentage damage on five-point scale” value in the test with Setaria faberi (SETFA) [9] was 4 (4=60-79%).
On to `Cn1nnnc1NC(=O)c1ccc(OC(F)F)c(NC(=O)c2ncc(Cl)cc2Cl)c1Cl` [Compound 1.087], for which the “PRE Application ECHCG, percentage damage on five-point scale” value in test [10] is listed as 1 (1=0-19%). Moreover, the “PRE Application ABUTH, percentage damage” value in test [1] is listed as 4 (4=60-79%). Besides, the “PRE Application IPOHE, percentage damage” value in test [2] was 4 (4=60-79%). In addition, the “PRE Application AMARE, percentage damage” value in [3] is reported as 5 (5=80-100%). Besides, the “PRE Application SETFA, percentage damage” value in the test with Setaria faberi (SETFA) [4] is listed as 4 (4=60-79%). The “POST Application ABUTH, percentage damage on five-point scale” value in test [6] is reported as 4 (4=60-79%). Moreover, the “POST Application IPOHE, percentage damage on five-point scale” value in test [7] is reported as 4 (4=60-79%). In addition, the “POST Application AMARE, percentage damage on five-point scale” value in test [8] is recorded as 4 (4=60-79%). The “POST Application SETFA, percentage damage on five-point scale” value in the test with Setaria faberi (SETFA) [9] was 4 (4=60-79%).
